# Molecular target: T1, recombinant human Meningioma Expressed Antigen 5 (MGEA5), also referred to as O-GlcNAcase (OGA) (Homo sapiens, UniProt O60502)
# T1 construct: Full length OGA enzyme was purchased at OriGene (cat # TP322411); purchased OriGene TP322411
# T1 sequence (O60502 1-916): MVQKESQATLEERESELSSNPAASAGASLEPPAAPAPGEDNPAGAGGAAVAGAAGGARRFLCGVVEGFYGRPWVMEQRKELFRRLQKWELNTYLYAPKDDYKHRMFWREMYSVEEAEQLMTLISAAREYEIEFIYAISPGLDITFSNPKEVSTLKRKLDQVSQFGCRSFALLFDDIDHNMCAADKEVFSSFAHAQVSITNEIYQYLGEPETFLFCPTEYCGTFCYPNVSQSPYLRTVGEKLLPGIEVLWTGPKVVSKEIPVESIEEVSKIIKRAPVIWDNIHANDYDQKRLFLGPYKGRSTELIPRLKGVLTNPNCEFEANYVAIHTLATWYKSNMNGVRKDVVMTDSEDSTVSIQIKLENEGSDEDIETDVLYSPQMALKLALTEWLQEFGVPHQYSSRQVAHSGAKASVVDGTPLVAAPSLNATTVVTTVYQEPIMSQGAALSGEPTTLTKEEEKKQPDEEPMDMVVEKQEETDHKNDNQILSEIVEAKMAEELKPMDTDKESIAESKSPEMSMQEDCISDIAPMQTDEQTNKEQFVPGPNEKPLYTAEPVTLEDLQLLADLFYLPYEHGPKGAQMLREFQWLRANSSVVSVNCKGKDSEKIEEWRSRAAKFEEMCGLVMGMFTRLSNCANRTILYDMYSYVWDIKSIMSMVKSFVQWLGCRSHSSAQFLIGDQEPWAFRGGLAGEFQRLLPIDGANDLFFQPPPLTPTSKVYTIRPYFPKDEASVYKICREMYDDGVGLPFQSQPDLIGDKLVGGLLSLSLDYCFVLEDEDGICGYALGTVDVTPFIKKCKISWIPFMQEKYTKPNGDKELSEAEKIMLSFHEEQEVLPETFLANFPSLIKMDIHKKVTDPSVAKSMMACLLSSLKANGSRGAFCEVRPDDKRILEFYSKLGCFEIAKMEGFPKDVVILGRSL
# Assay: OGA biochemical assay: inhibition of FM-GlcNAc hydrolysis, fluorescence; protocol A (10 nM OGA, 1 h) or protocol B (2 nM OGA, 6 h)
# Conditions: Enzymatic protocol B (2 nM OGA, 6 h); for IC50: read-out: Enzymatic hOGA, pIC50 (converted)
# Description: The assay is based on the inhibition of the hydrolysis of fluorescein mono-3-D-N-Acetyl-Glucosamine (FM-GlcNAc) (Mariappa et al. 2015, Biochem J 470:255) by the recombinant human Meningioma Expressed Antigen 5 (MGEA5), also referred to as O-GlcNAcase (OGA). The hydrolysis FM-GlcNAc (Marker Gene technologies, cat # M1485) results in the formation of ß-D-N-glucosamineacetate and fluorescein. The fluorescence of the latter can be measured at excitation wavelength 485 nm and emission wavelength 538 nm. An increase in enzyme activity results in an increase in fluorescence signal. Full length OGA enzyme was purchased at OriGene (cat # TP322411). The enzyme was stored in 25 mM Tris.HCl, pH 7.3, 100 mM glycine, 10% glycerol at −20° C. Thiamet G and GlcNAcStatin were tested as reference compounds (Yuzwa et al. 2008 Nature Chemical Biology 4:483; Yuzwa et al. 2012 Nature Chemical Biology 8:393). The assay was performed in 200 mM Citrate/phosphate buffer supplemented with 0.005% Tween-20. 35.6 g Na2HPO42H2O (Sigma, # C0759) were dissolved in 1 L water to obtain a 200 mM solution. 19.2 g citric acid (Merck, #1.06580) was dissolved in 1 L water to obtain a 100 mM solution. pH of the sodiumphosphate solution was adjusted with the citric acid solution to 7.2. The buffer to stop the reaction consists of a 500 mM Carbonate buffer, pH 11.0. 734 mg
# FM-GlcNAc were dissolved in 5.48 mL DMSO to obtain a 250 mM solution and was stored at −20° C. OGA was used at a 10 nM (protocol A) or 2 nM (protocol B) concentration and FM-GlcNAc at a 100 uM final concentration. Dilutions were prepared in assay buffer.
# 50 nl of a compound dissolved in DMSO was dispensed on Black Proxiplate™ 384 Plus Assay plates (Perkin Elmer, #6008269) and 3 μl fl-OGA enzyme mix added subsequently. Plates were pre-incubated for 60 min at room temperature and then 2 μl FM-GlcNAc substrate mix added. […] Plates were briefly centrifuged for 1 min at 1000 rpm and incubate at room temperature for 1 h (10 nM OGA, protocol A) or 6 h (2 nM OGA, protocol B). To stop the reaction 5 μl STOP buffer were added and plates centrifuge again 1 min at 1000 rpm. Fluorescence was quantified in the Thermo Scientific Fluoroskan Ascent or the PerkinElmer EnVision with excitation wavelength 485 nm and emission wavelength 538 nm.
# For analysis a best-fit curve is fitted by a minimum sum of squares method. From this an IC50 value and Hill coefficient was obtained. High control (no inhibitor) and low control (saturating concentrations of standard inhibitor) were used to define the minimum and maximum values.
Structure (SMILES),Emax [%],IC50 [nM],Enzymatic Emax (%),Enzymatic hOGA; pIC50
COc1cc(C[C@H]2CCN(Cc3cnc(NC(C)=O)s3)C2)cc(C)n1 [compound 42],101,8.32,–,–
CC(=O)Nc1ncc(CN2CC[C@H](Cc3cncnc3)C2)s1 [compound 55],99.8,55,–,–
COc1ccc(C)nc1C[C@H]1CCN(Cc2cnc(NC(C)=O)s2)C1 [compound 57],100,45.7,–,–
CC(=O)Nc1ncc(CN2CCC(Cc3ccc(C(F)(F)F)nn3)C2)s1 (stereo not drawn) [compound 65],–,–,100,7.28
CC(=O)Nc1ncc(CN2CCC(Cc3ccc(C(F)(F)F)cn3)C2)s1 (stereo not drawn) [compound 68],–,–,101.5,7.10
Cc1cc([C@@H]2CCCN([C@@H](C)c3ccc4sc(C)nc4c3)C2)cc(C)n1 [compound 116],79.2,3470,–,–
CC(=O)Nc1ncc(CN2CCCC(COc3cc(C)nc(C)c3)C2)[nH]1 (stereo not drawn) [compound 120],91.9,1230,–,–
CC(=O)Nc1ncc(CN2CCC[C@H](Cc3cnc(C)c(C)n3)C2)s1 [compound 124],100,1.74,–,–
CC(=O)Nc1ncc(CN2CCC[C@H](Cc3ccc(C)nc3C#N)C2)s1 [compound 125],100,1.7,–,–
CC(=O)Nc1ncc(CN2CC(COc3cc(C)nc(C)n3)CC(F)(F)C2)s1 (stereo not drawn) [compound 161],48,> 10000,–,–
CC(=O)Nc1ncc(CN2CCC(F)(F)C(COc3cc(C)nc(C)n3)C2)s1 (stereo not drawn) [compound 162],91,1050,–,–
CC(=O)Nc1ncc(CN2CCC(F)C(COc3cc(C)nc(C)n3)C2)s1 (stereo not drawn) [compound 163],101,63.1,–,–

# Second part, the compound after the results:
Emax [%],IC50 [nM],Enzymatic Emax (%),Enzymatic hOGA; pIC50,Structure (SMILES)
–,–,87.4,5.91,Cc1cc(C[C@H]2CCN(Cc3ccc4sc(C)nc4c3)C2)cc(C)n1 [compound 82]
–,–,87.8,5.79,Cc1cc(C[C@H]2CCN(Cc3ccc4scnc4c3)C2)cc(C)n1 [compound 83]
–,–,−6.5,<5,Cc1cc(C[C@H]2CCN(Cc3ccc4c(c3)OCO4)C2)cc(C)n1 [compound 99]
–,–,81.7,5.8,Cc1cc(C[C@H]2CCN(Cc3ccc4c(c3)OCCO4)C2)cc(C)n1 [compound 101]
93.5,1000,–,–,Cc1cc(C[C@H]2CCCN(Cc3ccc4c(c3)OCO4)C2)cc(C)n1 [compound 146]
20.8,> 10000,–,–,Cc1cc(C[C@H]2CCCN(Cc3cc4ccccc4n3C)C2)cc(C)n1 [compound 150]
2.86,> 10000,–,–,Cc1cc(C[C@H]2CCCN(Cc3nc4ccccc4[nH]3)C2)cc(C)n1 [compound 151]
23.9,> 10000,–,–,Cc1cc(C[C@H]2CCCN(Cc3nc4ccccc4n3C)C2)cc(C)n1 [compound 153]
40.9,> 10000,–,–,CC(=O)Nc1ncc(CN2CCC[C@H](Cc3cc(C)nc(C)c3)C2)n1C [compound 174]

# From patent US20200079766A1, “MONOCYCLIC OGA INHIBITOR COMPOUNDS” (Janssen Pharmaceutica NV, priority 2016, published 2020)
